From US20150018311A1, “THERAPEUTIC BORON-CONTAINING COMPOUNDS” (priority 2012, published 2015) come the findings set out here.

Holding throughout (assay): Growth in liquid media in presence of test compound
Holding throughout (type): cell-based

Assay [1] relates to Mycobacterium tuberculosis (H37Rv).
For assay [2], the system named is Staphylococcus aureus (ATCC 25923). The source says:
(§1) Test organisms used were the bacterial strains Escherichia coli (ATCC 25922), Pseudomonas aeruginosa (ATCC 27853), Staphylococcus aureus (ATCC 25923), Streptococcus pyogenes (ATCC 19615), and Mycobacterium tuberculosis (H37Rv), and the yeast strain Candida albicans (ATCC 90028).
(§2) The liquid media used for growth were Luria-Bertani (Becton Dickinson, Sparks, Md.) and Mueller-Hinton (bio-Merieux, Paris, France) broths, but with Saburo medium for Candida and Middlebrook 7H9 medium (Difco) for mycobacteria.
(§3) The strains were grown at 37° C. and after suitable cell concentrations had been reached, 100 μL of each cell suspension was added to a tube with growth media and test compound. Cultivation of the bacteria was then carried out in the presence of each test compound at 37° C. and the tubes examined for visible growth. The compounds were tested at concentrations of either 500 mg/l, 50 mg/l or 5 mg/l. This assay was repeated twice.
(§4) Some compounds were only tested against some test organisms. It will be appreciated that the charge of these molecules will depend on the environment, some of the Examples are shown with a suitable counter ion, some without.

The test system of assay [3] is Streptococcus pyogenes (ATCC 19615).
From the text: as §1, §2, §3, §4

The subject of assay [4] is Candida albicans (ATCC 90028).
From the text: as §1, §2, §3, §4

The test system of assay [5] is Escherichia coli (ATCC 25922).
From the text: as §1, §2, §3, §4

As for `CC1(C)C2CC3OB(CC(Cc4ccccc4)NC(=O)C(N)Cc4ccccc4)OC3(C)C1C2` (stereo not drawn) [Compound 2], the “Growth in the presence of test compound, M. tuberculosis” value (from here on “Growth … M. tuberculosis”) is “+” in assay [1] (5 mg/L), “+” in assay [1] (50 mg/L) and “±” in assay [1] (500 mg/L).
For the compound `CC(N)C(=O)NC(CB1OC2CC3CC(C3(C)C)C2(C)O1)Cc1ccccc1` (stereo not drawn) [Compound 3], the “Growth … M. tuberculosis” value in assay [1] (5 mg/L) is “+”; in assay [1] (50 mg/L) it was “−”; in assay [1] (500 mg/L) it was “−”. Also, the figures for the “Growth in the presence of test compound, S. aureus” value (from here on “Growth in the presence … S. aureus”) in assay [2] (5 mg/L), in assay [2] (50 mg/L) and in assay [2] (500 mg/L) were “+”, “+” and “−”, respectively. The “Growth in the presence of test compound, S. pyogenes” value (shortened to “Growth in the presence … S. pyogenes”) is recorded as “+” in assay [3] (5 mg/L), “+” in assay [3] (50 mg/L) and “−” in assay [3] (500 mg/L).
Consider `CC1(C)C2CC3OB(CC(Cc4ccccc4)NC(=O)C(N)Cc4c[nH]c5ccccc45)OC3(C)C1C2` (stereo not drawn) [Compound 5], for which the “Growth … M. tuberculosis” value is “+” in assay [1] (5 mg/L), “±” in assay [1] (50 mg/L) and “−” in assay [1] (500 mg/L). For the same compound, the figures for the “Growth in the presence … S. aureus” value in assay [2] (5 mg/L), in assay [2] (50 mg/L) and in assay [2] (500 mg/L) were “+”, “+” and “−”, respectively.
`CC(CB1OC2CC3CC(C3(C)C)C2(C)O1)NC(=O)C(N)CCCCN` (stereo not drawn) [Compound 6]: the “Growth … M. tuberculosis” value in assay [1] (5 mg/L) is on record as “+”; in assay [1] (50 mg/L), “+”; in assay [1] (500 mg/L), “±”.
Take `CC(N)C(=O)NC(CB1OC2CC3CC(C3(C)C)C2(C)O1)c1ccccc1` (stereo not drawn) [Compound 8]: the entries for the “Growth … M. tuberculosis” value in assay [1] (5 mg/L), in assay [1] (50 mg/L) and in assay [1] (500 mg/L) were “+”, “+” and “−”, respectively. The “Growth in the presence … S. aureus” value in assay [2] (5 mg/L) is “+”; in assay [2] (50 mg/L) it was “+”; in assay [2] (500 mg/L), “±”.
In the case of `CC1(C)C2CC3OB([C@@H](CNC(=O)[C@@H](N)Cc4ccccc4)Cc4ccccc4)O[C@]3(C)C1C2` (stereo partly drawn) [Compound 10], the “Growth … M. tuberculosis” value in assay [1] (5 mg/L), in assay [1] (50 mg/L) and in assay [1] (500 mg/L) was “−” throughout. Moreover, the “Growth in the presence of test compound, C. albicans” value (shortened to “Growth in the presence … C. albicans”) in assay [4] (5 mg/L) was “+”; in assay [4] (50 mg/L), “+”; in assay [4] (500 mg/L), “±”. Moreover, the “Growth in the presence … S. aureus” value in assay [2] (5 mg/L) is recorded as “+”; in assay [2] (50 mg/L), “+”; in assay [2] (500 mg/L) it was “±”. In addition, the “Growth in the presence … S. pyogenes” value in assay [3] (5 mg/L) is on record as “+”; in assay [3] (50 mg/L), “+”; in assay [3] (500 mg/L), “±”.
Consider `C[C@H](CNC(=O)[C@@H](N)CCCCN)B1OC2CC3CC(C3(C)C)[C@@]2(C)O1` (stereo partly drawn) [Compound 16], for which the figures for the “Growth … M. tuberculosis” value in assay [1] (5 mg/L), in assay [1] (50 mg/L) and in assay [1] (500 mg/L) were “+”, “±” and “−”, respectively. Also, the “Growth in the presence … C. albicans” value in assay [4] (5 mg/L) is on record as “+”; in assay [4] (50 mg/L), “+”; in assay [4] (500 mg/L), “±”.
On to `C[C@H](CNC(=O)[C@@H](N)Cc1ccccc1)B1OC2CC3CC(C3(C)C)[C@@]2(C)O1` (stereo partly drawn) [Compound 17], for which the “Growth … M. tuberculosis” value in assay [1] (5 mg/L) was “+”; in assay [1] (50 mg/L), “+”; in assay [1] (500 mg/L), “−”. Besides, the figures for the “Growth in the presence … C. albicans” value in assay [4] (5 mg/L), in assay [4] (50 mg/L) and in assay [4] (500 mg/L) were “+”, “+” and “±”, respectively. Also, the “Growth in the presence … S. aureus” value is reported as “+” in assay [2] (5 mg/L), “+” in assay [2] (50 mg/L) and “−” in assay [2] (500 mg/L). Besides, the “Growth in the presence … S. pyogenes” value is “+” in assay [3] (5 mg/L), “+” in assay [3] (50 mg/L) and “−” in assay [3] (500 mg/L).
Turning to `CC1(C)C2CC3OB([C@@H](CNC(=O)[C@@H](N)Cc4ccccc4)c4ccccc4)O[C@]3(C)C1C2` (stereo partly drawn) [Compound 23], the entries for the “Growth … M. tuberculosis” value in assay [1] (5 mg/L), in assay [1] (50 mg/L) and in assay [1] (500 mg/L) were “+”, “+” and “−”, respectively. Moreover, the “Growth in the presence … C. albicans” value in assay [4] (5 mg/L) is “+”; in assay [4] (50 mg/L), “+”; in assay [4] (500 mg/L) it was “−”. Besides, the “Growth in the presence … S. aureus” value in assay [2] (5 mg/L) is “+”; in assay [2] (50 mg/L) it was “+”; in assay [2] (500 mg/L), “−”. Also, the “Growth in the presence … S. pyogenes” value in assay [3] (5 mg/L) is on record as “+”; in assay [3] (50 mg/L), “+”; in assay [3] (500 mg/L), “−”.
For the compound `CC1(C)C2CC3OB(C(CNC(=O)C(N)CCCCN)c4ccccc4)OC3(C)C1C2` (stereo not drawn) [Compound 24], the “Growth … M. tuberculosis” value in assay [1] (5 mg/L) is listed as “+”; in assay [1] (50 mg/L), “+”; in assay [1] (500 mg/L), “−”.
Consider `C[C@@H](NC(=O)[C@@H](N)Cc1ccccc1)[C@@H](Cc1ccccc1)B1OC2CC3CC(C3(C)C)[C@@]2(C)O1` (stereo partly drawn) [Compound 27], for which the “Growth … M. tuberculosis” value was “+” in assay [1] (5 mg/L), “−” in assay [1] (50 mg/L) and “±” in assay [1] (500 mg/L). The figures for the “Growth in the presence … C. albicans” value in assay [4] (5 mg/L), in assay [4] (50 mg/L) and in assay [4] (500 mg/L) were “+”, “+” and “±”, respectively. The “Growth in the presence … S. pyogenes” value in assay [3] (5 mg/L) is on record as “+”; in assay [3] (50 mg/L), “+”; in assay [3] (500 mg/L), “±”.
In the case of `C[C@@H](B1OC2CC3CC(C3(C)C)[C@@]2(C)O1)[C@@H](Cc1ccccc1)NC(=O)[C@@H](N)Cc1ccccc1` (stereo partly drawn) [Compound 28], the “Growth … M. tuberculosis” value in assay [1] (5 mg/L) is “+”; in assay [1] (50 mg/L) it was “−”; in assay [1] (500 mg/L) it was “−”. Besides, the “Growth in the presence … C. albicans” value is listed as “+” in assay [4] (5 mg/L), “+” in assay [4] (50 mg/L) and “±” in assay [4] (500 mg/L). Also, the “Growth in the presence … S. aureus” value was “+” in assay [2] (5 mg/L), “+” in assay [2] (50 mg/L) and “±” in assay [2] (500 mg/L). Also, the “Growth in the presence … S. pyogenes” value in assay [3] (5 mg/L) was “+”; in assay [3] (50 mg/L), “+”; in assay [3] (500 mg/L) it was “±”.
On to `CC1(C)C2CC3OB(CCNC(=O)[C@@H](N)CCCCN)O[C@]3(C)C1C2` (stereo partly drawn) [Compound 32], for which the “Growth … M. tuberculosis” value is reported as “+” in assay [1] (5 mg/L), “+” in assay [1] (50 mg/L) and “−” in assay [1] (500 mg/L). Moreover, the “Growth in the presence … C. albicans” value was “+” in assay [4] (5 mg/L), “+” in assay [4] (50 mg/L) and “−” in assay [4] (500 mg/L). In addition, the “Growth in the presence of test compound, E. coli” value is “+” in assay [5] (5 mg/L), “+” in assay [5] (50 mg/L) and “±” in assay [5] (500 mg/L).
Regarding `N[C@@H](Cc1ccccc1)C(=O)N[C@@H](CB(O)O)Cc1ccccc1` [Compound 33], the “Growth … M. tuberculosis” value in assay [1] (5 mg/L) is on record as “±”; in assay [1] (50 mg/L), “−”; in assay [1] (500 mg/L), “−”.
For `C[C@H](N)C(=O)N[C@@H](CB(O)O)Cc1ccccc1` [Compound 35], the “Growth … M. tuberculosis” value in assay [1] (5 mg/L) is listed as “+”; in assay [1] (50 mg/L), “+”; in assay [1] (500 mg/L), “−”.
Consider `NCCCC[C@H](N)C(=O)NC[C@@H](CCc1ccccc1)B(O)O` [Compound 37], for which the “Growth … M. tuberculosis” value in assay [1] (5 mg/L) was “+”; in assay [1] (50 mg/L), “+”; in assay [1] (500 mg/L) it was “−”. The “Growth in the presence … C. albicans” value is “+” in assay [4] (5 mg/L), “+” in assay [4] (50 mg/L) and “−” in assay [4] (500 mg/L).
As for `N[C@@H](Cc1ccccc1)C(=O)NC[C@@H](CCc1ccccc1)B(O)O` [Compound 39], the “Growth … M. tuberculosis” value in assay [1] (5 mg/L) is given as “+”; in assay [1] (50 mg/L), “+”; in assay [1] (500 mg/L), “−”. The “Growth in the presence of test compound, E. coli” value in assay [5] (5 mg/L) is reported as “+”; in assay [5] (50 mg/L), “+”; in assay [5] (500 mg/L), “−”.
As for `C[C@H](N)C(=O)NC[C@H](Cc1ccccc1)B(O)O` [Compound 40], the “Growth … M. tuberculosis” value in assay [1] (5 mg/L) is “±”; in assay [1] (50 mg/L), “±”; in assay [1] (500 mg/L) it was “−”.
